Tested on: Rat pancreatic cancer cell line RIN-14B
Assay: Serotonin (5-HT) release test in cultured serotonin-producing cells, 5-HT measured by EIA
Assay type: cell-based
Details: positive control, final concentration 100 μmol/L, 1 hour culture
Method: The crude drug mixture of the proportions presented in Table 1 was extracted by heating at 100° C. for 1 hour with purified water used in 10 times the amount of the mixture weight, and the extract was processed into a powder to obtain a Koi-free Daikenchuto extract powder. The Koi-free Daikenchuto extract powder was used to prepare a 100 mg/mL DMSO suspension, and the suspension was mixed with an 88.8 mg/mL maltose aqueous solution at a 1:9 ratio to prepare a […] Daikenchuto solution. The solution was diluted with 0.1% BSA-Hanks buffer* to make the concentration 9 mg/mL and subjected to 15-min sonication to prepare a Daikenchuto test sample.
Separately, a DMSO solution of 100 mmol/L AITC was prepared as a positive control sample by adding allyl isothiocyanate (AITC; Wako Pure Chemical Industries, Ltd.) to DMSO. […]
The plate was washed three times with a washing buffer attached to the kit (300 μL/well) to remove the free components. […] After confirming the development of color, the reaction was stopped by adding a reaction stopper ([…] and the absorbance at 405 nm was measured. The results are presented in FIG. 1.

`C=CCN=C=S` [AITC, allyl isothiocyanate] was tested, and the “5-HT concentration compared with the control” value was “evidently higher”.

Source: US9121846B2, “Daikenchuto bioassay method and quality management method using same” (TSUMURA & Co., priority 2010, dated 2015)
